Test results from PMC3579193, “Elucidation of relaxin-3 binding interactions in the extracellular loops of RXFP3” (Frontiers in Endocrinology, 2013).
Positions count from the first letter of the chain named. Entries after “also recorded” stand apart in the source; their conditions may differ.

Tests used:
HA-RXFP3 ∆1–33 = biological target: T1, HA-RXFP3 ∆1–33 (Homo sapiens, UniProt Q9NSD7); experiment: Competition binding with Eu-H3/I5, HA-RXFP3 ∆1–33
T1 construct: expressed in transfected cells; host or cells: HEK-293T
T1 sequence (Q9NSD7 34-469): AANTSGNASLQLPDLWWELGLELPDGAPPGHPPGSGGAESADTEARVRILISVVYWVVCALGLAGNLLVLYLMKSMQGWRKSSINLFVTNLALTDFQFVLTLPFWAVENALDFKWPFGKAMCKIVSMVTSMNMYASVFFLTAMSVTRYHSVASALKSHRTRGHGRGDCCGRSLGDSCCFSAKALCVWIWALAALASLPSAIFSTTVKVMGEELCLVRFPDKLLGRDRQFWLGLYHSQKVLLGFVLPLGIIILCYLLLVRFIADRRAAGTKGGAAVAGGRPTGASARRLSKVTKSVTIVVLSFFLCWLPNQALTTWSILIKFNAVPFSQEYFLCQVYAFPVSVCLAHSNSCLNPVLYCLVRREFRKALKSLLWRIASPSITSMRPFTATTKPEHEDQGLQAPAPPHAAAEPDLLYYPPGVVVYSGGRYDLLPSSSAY
From the text: (§1) PCR reactions and cloning were undertaken as previously described ([Scott et al., 2006], [2012]).
A pcDNA3.1zeo (+) vector with a start codon and HA tag (pcDNA3.1zeo (+)-HA) was produced by ligating a double stranded primer containing a BamHI site at the 5′ end followed by a start codon and HA tag and then a EcoRV blunt site at the 3′ end (Table 2) into a pcDNA3.1zeo (+) vector cut with BamHI and EcoRV. […]
HEK-293T cells were transfected in 96 well optiplates (Perkin Elmer) with plasmids encoding the constructs of interest and Eu-H3/I5 binding assays conducted as described previously ([Luo et al., 2010]; [Haugaard-Kedstrom et al., 2011]). […] Binding data are expressed as mean ± standard error of mean (SEM) of % specific binding of triplicate measurements pooled from at least three independent experiments. Data were analyzed using Graphpad PRISM (Graphpad Inc.) and a non-linear regression one-site binding model was used to plot curves and calculate pIC50 values. […] The HA epitope was detected using a purified mouse monoclonal anti-HA antibody [HA.11(16B12), Covance] and a Alexafluor488-labeled goat anti mouse IgG (Invitrogen) in cell surface expression assays that were performed in 24 well plates as previously described ([Yan et al., 2008]). […] Pooled data were analyzed using one-way ANOVA coupled to Newman–Keuls multiple comparison test for multiple group comparison.

HA-RXFP3 245A = biological target: T2, HA-RXFP3 245A (Homo sapiens, UniProt Q9NSD7, E245A); experiment: Competition binding with Eu-H3/I5, HA-RXFP3 E245A
T2 construct: expressed in transfected cells; host or cells: HEK-293T
T2 sequence (Q9NSD7 2-469 E245A limits assumed): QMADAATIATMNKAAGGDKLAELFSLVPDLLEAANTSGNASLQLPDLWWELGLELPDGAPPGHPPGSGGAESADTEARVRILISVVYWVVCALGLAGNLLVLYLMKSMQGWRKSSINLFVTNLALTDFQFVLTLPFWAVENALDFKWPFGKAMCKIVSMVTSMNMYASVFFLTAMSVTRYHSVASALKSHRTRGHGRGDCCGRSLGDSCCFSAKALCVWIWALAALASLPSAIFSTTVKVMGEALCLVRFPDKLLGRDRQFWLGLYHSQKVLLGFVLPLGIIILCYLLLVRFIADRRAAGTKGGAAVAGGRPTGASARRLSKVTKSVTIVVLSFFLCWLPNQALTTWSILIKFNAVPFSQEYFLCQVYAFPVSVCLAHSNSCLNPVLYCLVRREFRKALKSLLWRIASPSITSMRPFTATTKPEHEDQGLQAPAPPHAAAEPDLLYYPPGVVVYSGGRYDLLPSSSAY
Method: as §1
(§2) The same protocol was used to prepare DNA templates of all Glu/Asp to Ala mutants, entailing a single codon change except for D47A/E51A, E55A/D58A, and E141A/D145A which required a double codon change both to Ala. The forward and reverse primers for all mutants are listed in Table 1 and mutagenesis reactions on pcDNA3.1zeo (+)-HA-RXFP3 were performed as previously described ([Scott et al., 2006]; [Yan et al., 2008]). […]
(§3) HEK-293T cells were transfected in 96 well optiplates (Perkin Elmer) with plasmids encoding the constructs of interest and Eu-H3/I5 binding assays conducted as described previously ([Luo et al., 2010]; [Haugaard-Kedstrom et al., 2011]). […] Binding data are expressed as mean ± standard error of mean (SEM) of % specific binding of triplicate measurements pooled from at least three independent experiments. Data were analyzed using Graphpad PRISM (Graphpad Inc.) and a non-linear regression one-site binding model was used to plot curves and calculate pIC50 values. […] The HA epitope was detected using a purified mouse monoclonal anti-HA antibody [HA.11(16B12), Covance] and a Alexafluor488-labeled goat anti mouse IgG (Invitrogen) in cell surface expression assays that were performed in 24 well plates as previously described ([Yan et al., 2008]). […]

HA-RXFP3 E77A = biological target: T3, HA-RXFP3 E77A (Homo sapiens, UniProt Q9NSD7, E77A); experiment: Competition binding with Eu-H3/I5, HA-RXFP3 E77A
T3 construct: expressed in transfected cells; host or cells: HEK-293T
T3 sequence (Q9NSD7 2-469 E77A limits assumed): T2 sequence (Q9NSD7 2-469 E245A limits assumed) with E76A, A244E
Method: as §1, §2, §3

For CC[C@H](C)[C@@H]1NC(=O)[C@H](Cc2ccccc2)NC(=O)[C@H](CCC(=O)O)NC(=O)[C@H](CCCNC(=N)N)NC(=O)CNC(=O)[C@@H](NC(=O)[C@H](CC(C)C)NC(=O)[C@H](CCCNC(=N)N)NC(=O)[C@@H](NC(=O)CNC(=O)[C@H](Cc2ccc(O)cc2)NC(=O)[C@@H]2CCCN2C(=O)[C@H](C)NC(=O)[C@H](C)NC(=O)[C@@H](N)CCCNC(=N)N)C(C)C)CSSC[C@@H]2NC(=O)[C@@H](NC(=O)[C@H](CO)NC(=O)[C@H](CO)NC(=O)[C@H](CO)NC(=O)[C@H](CC(C)C)NC(=O)CNC(=O)[C@H](C)NC(=O)[C@H](CC(C)C)NC(=O)[C@@H](NC(=O)[C@@H](N)CC(=O)O)C(C)C)CSSC[C@H](NC(=O)CNC(=O)[C@H](Cc3c[nH]c4ccccc34)NC(=O)[C@H](CCCCN)NC2=O)C(=O)N[C@@H](CO)C(=O)N[C@@H](CCCCN)C(=O)N[C@@H](CO)C(=O)N[C@@H](CCC(=O)O)C(=O)N[C@@H]([C@@H](C)CC)C(=O)N[C@@H](CO)C(=O)N[C@@H](CO)C(=O)N[C@@H](CC(C)C)C(=O)N[C@H](C(=O)O)CSSC[C@@H](C(=O)NCC(=O)NCC(=O)N[C@@H](CO)C(=O)N[C@@H](CCCNC(=N)N)C(=O)N[C@@H](Cc2c[nH]c3ccccc23)C(=O)O)NC(=O)[C@H]([C@@H](C)O)NC(=O)[C@H](Cc2ccccc2)NC(=O)[C@H]([C@@H](C)CC)NC(=O)[C@H](C(C)C)NC(=O)[C@H](C)NC(=O)[C@H](CCCNC(=N)N)NC1=O [H3 relaxin], the IC50 (HA-RXFP3 ∆1–33) was 14.8 nM, the “effect on affinity of truncation” value (HA-RXFP3 ∆1–33; vs HA-RXFP3, competition binding) was “no significant effect on the affinity” and the IC50 (HA-RXFP3 245A) was 44.7 nM. For the same compound, the “affinity compared with HA-RXFP3” value (HA-RXFP3 245A; competition binding, p > 0.05) was “slightly lower H3 relaxin binding affinity but this was not significantly different from HA-RXFP3; also recorded: no significant difference in H3 relaxin affinity; also recorded: did not show a significant drop in binding”, the IC50 (HA-RXFP3 E77A) was 31.6 nM and the “affinity compared with HA-RXFP3” value (HA-RXFP3 E77A; competition binding, p > 0.05) was “slightly lower H3 relaxin binding affinity but this was not significantly different from HA-RXFP3; also recorded: no significant difference in H3 relaxin affinity; also recorded: did not show a significant drop in binding”.
